Experiment [1] addresses PIK3CA (human) (UniProt P42336). Nature of the experiment: Enzyme Assay.
The target in experiment [2] is PIK3CG (human) (UniProt P48736). In words: Enzyme Assay.
Experiment [3] deals with PIK3CD (Human) (UniProt O00329). Nature of the experiment: Enzyme Assay.
For experiment [4], the target named is PIK3CB (Human) (UniProt P42338). In words: Enzyme Assay.
For experiment [5], the target named is PIK3CA (human) (UniProt P42336). In words: Cell-Based Assay.

Structures are written as SMILES.

Sequence of PIK3CD (Human) (O00329 whole entry, looked up): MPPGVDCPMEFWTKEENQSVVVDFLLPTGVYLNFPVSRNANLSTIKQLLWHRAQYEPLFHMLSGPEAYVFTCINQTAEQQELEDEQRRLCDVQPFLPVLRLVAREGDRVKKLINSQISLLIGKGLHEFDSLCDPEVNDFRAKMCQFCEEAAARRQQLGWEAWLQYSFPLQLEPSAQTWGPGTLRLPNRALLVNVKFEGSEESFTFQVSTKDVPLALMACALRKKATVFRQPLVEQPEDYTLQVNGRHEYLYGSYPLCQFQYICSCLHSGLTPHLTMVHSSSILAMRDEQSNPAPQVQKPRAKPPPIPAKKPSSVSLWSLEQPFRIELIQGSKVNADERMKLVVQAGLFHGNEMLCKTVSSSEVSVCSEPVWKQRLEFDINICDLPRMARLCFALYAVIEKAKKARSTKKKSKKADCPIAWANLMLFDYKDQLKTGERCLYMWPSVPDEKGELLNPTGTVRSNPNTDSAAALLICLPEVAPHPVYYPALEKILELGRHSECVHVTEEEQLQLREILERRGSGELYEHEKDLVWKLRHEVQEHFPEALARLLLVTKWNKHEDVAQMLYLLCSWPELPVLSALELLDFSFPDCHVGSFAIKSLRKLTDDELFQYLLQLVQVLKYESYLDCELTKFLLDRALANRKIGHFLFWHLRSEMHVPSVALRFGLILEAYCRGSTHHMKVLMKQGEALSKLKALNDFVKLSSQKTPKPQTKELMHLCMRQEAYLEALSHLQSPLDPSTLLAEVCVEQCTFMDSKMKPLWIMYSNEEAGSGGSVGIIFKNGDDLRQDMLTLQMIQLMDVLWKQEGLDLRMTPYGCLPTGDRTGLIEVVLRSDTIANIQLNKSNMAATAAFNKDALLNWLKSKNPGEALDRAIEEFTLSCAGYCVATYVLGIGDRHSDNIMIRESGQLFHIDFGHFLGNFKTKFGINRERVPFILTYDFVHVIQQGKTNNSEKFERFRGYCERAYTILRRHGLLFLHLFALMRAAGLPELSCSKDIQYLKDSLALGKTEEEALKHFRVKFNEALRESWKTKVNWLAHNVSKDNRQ
Sequence of PIK3CG (human) (P48736 whole entry, looked up): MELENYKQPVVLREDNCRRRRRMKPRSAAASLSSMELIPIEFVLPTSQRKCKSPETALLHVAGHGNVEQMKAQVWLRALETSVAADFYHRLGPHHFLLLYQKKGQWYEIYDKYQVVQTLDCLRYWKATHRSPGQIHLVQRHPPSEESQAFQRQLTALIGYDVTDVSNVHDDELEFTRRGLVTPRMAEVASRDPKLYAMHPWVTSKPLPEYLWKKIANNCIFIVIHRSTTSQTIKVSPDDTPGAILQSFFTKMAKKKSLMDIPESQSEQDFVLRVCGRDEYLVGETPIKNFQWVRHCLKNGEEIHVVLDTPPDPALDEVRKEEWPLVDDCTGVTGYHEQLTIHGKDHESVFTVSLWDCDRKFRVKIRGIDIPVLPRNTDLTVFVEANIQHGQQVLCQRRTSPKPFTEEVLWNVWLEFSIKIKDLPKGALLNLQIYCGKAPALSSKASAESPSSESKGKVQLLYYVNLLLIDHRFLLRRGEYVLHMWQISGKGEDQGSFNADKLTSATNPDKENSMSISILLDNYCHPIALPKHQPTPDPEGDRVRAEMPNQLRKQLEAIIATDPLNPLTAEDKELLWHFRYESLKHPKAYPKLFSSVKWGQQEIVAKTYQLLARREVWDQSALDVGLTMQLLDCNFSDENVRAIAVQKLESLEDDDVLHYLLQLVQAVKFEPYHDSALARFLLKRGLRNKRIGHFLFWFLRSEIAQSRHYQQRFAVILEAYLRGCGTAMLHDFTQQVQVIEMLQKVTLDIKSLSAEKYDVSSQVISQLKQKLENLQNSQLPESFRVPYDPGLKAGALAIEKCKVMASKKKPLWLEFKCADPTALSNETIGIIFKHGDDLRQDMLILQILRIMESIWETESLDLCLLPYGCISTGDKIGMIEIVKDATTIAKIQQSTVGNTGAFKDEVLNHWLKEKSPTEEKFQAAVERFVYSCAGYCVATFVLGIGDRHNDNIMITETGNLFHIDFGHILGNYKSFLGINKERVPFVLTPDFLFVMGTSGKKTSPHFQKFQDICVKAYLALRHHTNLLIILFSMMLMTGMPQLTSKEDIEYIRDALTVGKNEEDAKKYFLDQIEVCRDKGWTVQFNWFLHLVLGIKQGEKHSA
Sequence of PIK3CB (Human) (P42338 whole entry, looked up): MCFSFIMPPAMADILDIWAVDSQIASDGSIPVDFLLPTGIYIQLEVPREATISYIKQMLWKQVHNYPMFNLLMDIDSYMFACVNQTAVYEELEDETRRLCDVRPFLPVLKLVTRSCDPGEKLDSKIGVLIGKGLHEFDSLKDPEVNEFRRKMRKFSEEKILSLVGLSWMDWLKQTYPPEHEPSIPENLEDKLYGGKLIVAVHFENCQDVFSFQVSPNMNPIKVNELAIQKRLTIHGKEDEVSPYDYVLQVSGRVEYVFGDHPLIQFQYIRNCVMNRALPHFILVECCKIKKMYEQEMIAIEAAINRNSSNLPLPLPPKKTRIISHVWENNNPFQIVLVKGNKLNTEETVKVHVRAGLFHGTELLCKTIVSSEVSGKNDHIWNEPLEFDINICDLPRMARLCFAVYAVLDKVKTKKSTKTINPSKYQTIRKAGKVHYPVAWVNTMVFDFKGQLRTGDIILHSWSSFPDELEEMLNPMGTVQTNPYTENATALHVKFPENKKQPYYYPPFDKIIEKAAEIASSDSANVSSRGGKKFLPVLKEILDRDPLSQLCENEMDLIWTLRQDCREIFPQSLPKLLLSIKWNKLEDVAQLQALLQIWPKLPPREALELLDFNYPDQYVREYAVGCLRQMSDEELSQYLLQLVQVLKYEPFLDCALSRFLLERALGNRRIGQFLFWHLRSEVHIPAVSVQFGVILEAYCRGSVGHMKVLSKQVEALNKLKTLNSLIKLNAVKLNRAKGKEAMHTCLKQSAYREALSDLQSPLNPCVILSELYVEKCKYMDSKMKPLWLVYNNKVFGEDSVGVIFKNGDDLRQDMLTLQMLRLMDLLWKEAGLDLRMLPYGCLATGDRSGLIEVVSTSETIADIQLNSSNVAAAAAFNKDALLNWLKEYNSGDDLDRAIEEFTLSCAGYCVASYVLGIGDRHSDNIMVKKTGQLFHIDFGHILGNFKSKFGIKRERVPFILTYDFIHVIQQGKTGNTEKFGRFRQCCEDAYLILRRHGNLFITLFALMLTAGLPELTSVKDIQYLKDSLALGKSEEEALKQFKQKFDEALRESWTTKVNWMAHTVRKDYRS
Sequence of PIK3CA (human) (P42336 whole entry, looked up): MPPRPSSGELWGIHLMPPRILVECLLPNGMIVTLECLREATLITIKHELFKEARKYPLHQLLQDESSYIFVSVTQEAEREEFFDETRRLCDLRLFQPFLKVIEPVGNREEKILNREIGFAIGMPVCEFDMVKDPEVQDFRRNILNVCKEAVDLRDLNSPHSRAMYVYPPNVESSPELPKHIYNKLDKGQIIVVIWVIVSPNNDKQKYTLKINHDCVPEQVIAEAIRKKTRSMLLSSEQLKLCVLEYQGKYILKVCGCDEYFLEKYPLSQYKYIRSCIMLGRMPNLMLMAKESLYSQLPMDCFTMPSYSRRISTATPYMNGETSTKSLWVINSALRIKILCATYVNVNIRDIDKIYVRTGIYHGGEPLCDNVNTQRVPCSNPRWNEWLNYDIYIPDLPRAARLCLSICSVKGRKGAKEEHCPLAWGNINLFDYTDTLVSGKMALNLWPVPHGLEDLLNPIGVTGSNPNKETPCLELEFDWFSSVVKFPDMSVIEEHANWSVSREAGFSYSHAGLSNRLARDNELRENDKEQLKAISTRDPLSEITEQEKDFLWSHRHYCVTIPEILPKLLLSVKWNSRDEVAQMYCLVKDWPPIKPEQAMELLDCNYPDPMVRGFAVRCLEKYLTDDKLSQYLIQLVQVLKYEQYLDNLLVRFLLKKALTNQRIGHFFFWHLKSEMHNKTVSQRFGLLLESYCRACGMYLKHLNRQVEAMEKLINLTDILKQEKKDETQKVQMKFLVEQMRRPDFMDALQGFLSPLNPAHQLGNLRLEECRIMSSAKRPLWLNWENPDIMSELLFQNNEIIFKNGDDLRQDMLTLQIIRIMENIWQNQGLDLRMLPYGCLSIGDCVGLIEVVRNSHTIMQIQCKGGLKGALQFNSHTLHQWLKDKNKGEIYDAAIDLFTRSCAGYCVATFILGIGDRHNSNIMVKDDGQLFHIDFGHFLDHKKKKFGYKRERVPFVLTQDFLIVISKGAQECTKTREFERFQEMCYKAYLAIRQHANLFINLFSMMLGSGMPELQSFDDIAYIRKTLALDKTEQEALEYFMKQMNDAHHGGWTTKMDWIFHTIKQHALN

`CN1CCN(S(=O)(=O)c2cnc3ccc(-c4ccc5oc(N)nc5c4)cn23)CC1`: the IC50 in experiment [1], in experiment [2], in experiment [3] and in experiment [4] was more than 10000 nM in each case.

Turning to `Nc1nc2cc(-c3ccc4ncc(NCCN5CCOCC5)nc4c3)ccc2o1`, the IC50 (commonly the concentration that inhibits the measured activity by half) in experiment [1] was less than 100 nM; in experiment [2] it was 100 to 1000 nM; in experiment [3] it was 100 to 1000 nM; in experiment [4], 100 to 1000 nM.

On to `CNc1nsc2cc(-c3ccc4ncc(C(=O)N5CCOCC5)n4c3)ccc12`, for which the concentration for half-maximal inhibition (IC50) in experiment [1], in experiment [2], in experiment [3] and in experiment [4] was more than 10000 nM throughout.

Regarding `CC(=O)Nc1cc2ccc(-c3cc(F)c4oc(N)nc4c3)cn2n1`, the IC50 in experiment [1], in experiment [3] and in experiment [4] was more than 10000 nM throughout.

As for `Nc1nc2cc(-c3ccc4ncc(-c5ccncc5)n4c3)ccc2o1`, the IC50 in experiment [5] (t47d) was 100 to 1000 nM; in experiment [1], less than 100 nM; in experiment [2], less than 100 nM; in experiment [3], 100 to 1000 nM.

Regarding `CC1CN(C(=O)c2cnc3ccc(-c4ccc5oc(N)nc5c4)cn23)CCN1` (stereo not drawn), the IC50 is 100 to 1000 nM in experiment [1], more than 10000 nM in experiment [2], more than 10000 nM in experiment [3] and 100 to 1000 nM in experiment [4].

With `Nc1nc2cc(-c3ccc4nccc(-c5ccncc5)c4c3)ccc2o1`, the IC50 in experiment [5] (pc3) was 100 to 1000 nM; in experiment [5] (t47d), 100 to 1000 nM; in experiment [1], less than 100 nM; in experiment [2], less than 100 nM; in experiment [3], less than 100 nM.

As to `Nc1nc2ccc(-c3ccc4nccc(-c5ccncc5)c4c3)cc2o1`, the IC50 in experiment [5] (pc3), in experiment [1], in experiment [2], in experiment [3] and in experiment [4] was less than 100 nM each time.

In experiment [1], `Nc1nc2cccc(-c3ccc4nccc(-c5ccncc5)c4c3)c2s1` registered an IC50 of less than 100 nM.

For the compound `CC(=O)Nc1nc2ccc(-c3ccc4oc(N)nc4c3)cc2s1`, the IC50 in experiment [5] (t47d) is 100 to 1000 nM; in experiment [1], less than 100 nM; in experiment [2], less than 100 nM; in experiment [3], less than 100 nM; in experiment [4], 100 to 1000 nM.

Take `CN1CCN(C(=O)c2cnn3ccc(-c4ccc5oc(N)nc5c4)cc23)CC1`: the IC50 was 100 to 1000 nM in experiment [1] and more than 10000 nM in experiment [3].

For `Nc1nc2cc(-c3ccc4ncc(C(=O)N5CCC(O)C5)n4c3)ccc2o1` (stereo not drawn), the IC50 in experiment [5] (t47d) and in experiment [2] was 100 to 1000 nM each time.

Take `Nc1nc2cc(-c3ccc4ncc(C(=O)N5C6CCC5COC6)n4c3)ccc2o1`: the IC50 was 100 to 1000 nM in experiment [5] (pc3), 100 to 1000 nM in experiment [1] and less than 100 nM in experiment [2].

In the case of `C[C@H]1CN(c2cnc3ccc(-c4ccc5oc(N)nc5c4)cc3c2)CCN1`, the IC50 is less than 100 nM in experiment [1], more than 10000 nM in experiment [3] and less than 100 nM in experiment [4].

In the case of `CN(C)CC(=O)N1CCN(c2cnc3ccc(-c4ccc5oc(N)nc5c4)cc3n2)CC1`, the IC50 in experiment [5] (t47d) is 100 to 1000 nM; in experiment [1], less than 100 nM; in experiment [2], 100 to 1000 nM; in experiment [3], 100 to 1000 nM; in experiment [4] it was 100 to 1000 nM.

Take `Nc1nc2cc(-c3ccc4ncc(C(=O)N5CCC(N6CCC(F)(F)C6)C5)n4c3)ccc2o1` (stereo not drawn): the IC50 is 100 to 1000 nM in experiment [1] and more than 10000 nM in experiment [4].

Turning to `Nc1nc2cc(-c3ccc4ncn(-c5ccncc5)c4c3)ccc2o1`, the IC50 was more than 10000 nM in experiment [5] (pc3), less than 100 nM in experiment [1] and 100 to 1000 nM in experiment [2].

Regarding `Nc1nc2cc(-c3ccc4ncc(-c5ccncc5)n4n3)ccc2o1`, the IC50 in experiment [5] (pc3) is 100 to 1000 nM; in experiment [5] (t47d), 100 to 1000 nM; in experiment [1], less than 100 nM; in experiment [2], less than 100 nM; in experiment [4], 100 to 1000 nM.

Take `Nc1nc2cc(-c3ccc4ncc(S(=O)(=O)N5CCOCC5)n4c3)ccc2o1`: the IC50 in experiment [1], in experiment [2], in experiment [3] and in experiment [4] was more than 10000 nM in each case.

For the compound `COC(=O)N1CCC(N2N=CC3C(N4CCOCC4)=NC(c4ccc5oc(N)nc5c4)=NC32)CC1` (stereo not drawn), the half-inhibitory concentration (IC50) in experiment [1] is 100 to 1000 nM; in experiment [2], more than 10000 nM; in experiment [3], more than 10000 nM.

In the case of `CN1CCN(n2cnc3ccc(-c4ccc5oc(N)nc5c4)cc3c2=O)CC1`, the IC50 is 100 to 1000 nM in experiment [1], more than 10000 nM in experiment [2], more than 10000 nM in experiment [3] and more than 10000 nM in experiment [4].

In experiment [2], `Nc1nc2cc(-c3ccc4ncc(C(=O)N[C@H]5CC[C@H](O)CC5)n4c3)ccc2o1` registered an IC50 of less than 100 nM.

On to `NC1=NC2C=C(c3ccc4nc(N)oc4c3)C=CC2O1` (stereo not drawn), for which the IC50 in experiment [1] was 100 to 1000 nM; in experiment [2], less than 100 nM; in experiment [3] it was 100 to 1000 nM.

For `CC1(C)CN(C2CN(C(=O)c3cnc4ccc(-c5ccc6oc(N)nc6c5)cn34)C2)CCN1`, the IC50 in experiment [5] (pc3) is 100 to 1000 nM; in experiment [1] it was less than 100 nM; in experiment [2], 100 to 1000 nM; in experiment [3], less than 100 nM.

In experiment [3], `COc1ncc(-c2ccc3ncn(C4CCN(C)CC4)c(=O)c3c2)cc1NS(C)(=O)=O` yielded an IC50 of less than 100 nM.

For the compound `NC1=NC2C=C(c3ccc4oc(N)nc4c3)C=CC2O1` (stereo not drawn), the IC50 in experiment [1] is 100 to 1000 nM; in experiment [2], less than 100 nM.

Turning to `NC(=O)[C@H]1CCCN1c1cnc2ccc(-c3ccc4oc(N)nc4c3)cc2n1`, the IC50 in experiment [5] (t47d) is 100 to 1000 nM; in experiment [1] it was less than 100 nM; in experiment [2], less than 100 nM; in experiment [3] it was more than 10000 nM; in experiment [4], less than 100 nM.

The compound `C[C@H]1CN(c2cnc3ccc(-c4cccc5c(N)nsc45)cc3n2)CCN1` came in with an IC50 in experiment [2] of less than 100 nM.

For `Nc1nc2ccc(-c3ccc4nccc(-c5ccncc5)c4c3)cc2s1`, the IC50 in experiment [1] was less than 100 nM; in experiment [2], 100 to 1000 nM; in experiment [3] it was 100 to 1000 nM; in experiment [4] it was more than 10000 nM.

`Nc1nc2cc(-c3ccc4ncc(N5CCCC5)nc4c3)ccc2o1` came in with an IC50 in experiment [5] (t47d) of 100 to 1000 nM.

Consider `Nc1nc2cc(-c3ccc4ncc(-c5cn[nH]c5)n4n3)ccc2o1`, for which the IC50 was less than 100 nM in experiment [1], less than 100 nM in experiment [2], 100 to 1000 nM in experiment [3] and less than 100 nM in experiment [4].

With `CS(=O)(=O)N1CCC(n2cnc3ccc(-c4ccc5oc(N)nc5c4)cc3c2=O)CC1`, the IC50 in experiment [1] is 100 to 1000 nM; in experiment [2], more than 10000 nM; in experiment [3], more than 10000 nM.

In turn, `Nc1nc2cc(-c3ccc4ncc(C(=O)NC5CC5)n4c3)ccc2o1` showed an IC50 in experiment [5] (t47d) of 100 to 1000 nM.

In experiment [5] (pc3), `Nc1nc2cc(-c3ccc4ncc(C(=O)N5CC(F)(F)C5)n4c3)ccc2o1` gave an IC50 of 100 to 1000 nM.

As for `Nc1nc2cc(-c3ccc4nnc(C(=O)N5CCOCC5)n4c3)ccc2o1`, the IC50 in experiment [5] (t47d) was more than 10000 nM.

In experiment [5] (mda-mb-361), `C[C@H]1CN(C2CN(c3cnc4ccc(-c5ccc6oc(N)nc6c5)nc4c3)C2)CCN1C` yielded an IC50 of 100 to 1000 nM.

`Cc1cn(-c2cnc3ccc(-c4ccc5oc(N)nc5c4)cc3n2)cn1`: in experiment [5] (t47d), the IC50 was more than 10000 nM.

For `CNC(=O)CN1CCN(c2cnc3ccc(-c4ccc5oc(N)nc5c4)cc3n2)CC1`, the IC50 in experiment [5] (t47d) lay within 100 to 1000 nM.

For `O=C(c1cnc2ccc(-c3cnc(Cl)c(NS(=O)(=O)c4cccc(F)c4)c3)cn12)N1CCOCC1`, the IC50 in experiment [5] (pc3) lay within 100 to 1000 nM.

As for `Nc1nc2cc(-c3ccc4ncc(N5CC(C(=O)N6CCN(C7CC7)CC6)C5)nc4c3)ccc2o1`, the half-maximal inhibitory concentration (IC50) in experiment [5] (t47d) was 100 to 1000 nM.

Compound `CC(N)C(=O)N1CCN(c2cnc3ccc(-c4ccc5oc(N)nc5c4)cc3n2)CC1` (stereo not drawn) had a half-maximal inhibitory concentration (IC50) in experiment [5] (t47d) of 100 to 1000 nM.

Consider `C[C@H]1COCCN1C1CN(c2cnc3ccc(-c4ccc5oc(N)nc5c4)nc3n2)C1`, for which, in experiment [5] (mda-mb-361), the IC50 is more than 10000 nM.

Turning to `Nc1nc2cc(-c3ccc4ncc(N[C@H]5CC[C@H](O)CC5)nc4c3)ccc2o1`, the IC50 in experiment [1], in experiment [2] and in experiment [3] was less than 100 nM each time.

Regarding `Nc1nc2cc(-c3ccc4ncc(N5CC6CCC(C5)O6)cc4n3)ccc2o1`, the IC50 in experiment [5] (mda-mb-361) was 100 to 1000 nM.

The values are drawn from the Kinase Knowledgebase extract (Sharma et al. 2016).
